Measurements taken from ChEMBL document CHEMBL6096649, “Enantiomeric C-6 fluorinated swainsonine derivatives as highly selective and potent inhibitors of α-mannosidase and α-l-rhamnosidase: Design, synthesis and structure-activity relationship study” (Eur J Med Chem, 2025).

Species on record: Sus scrofa
Assay: Inhibition of porcine kidney Alpha alpha-trehalase using p-nitrophenyl glycoside as substrate assessed as release of p-nitrophenol at 1000 uM by spectrometric analysis relative to control

Compound | inhibition [%]
O[C@H]1[C@H]2[C@@H](O)CCCN2C[C@H]1O | 0
O[C@H]1[C@H]2[C@@H](O)C[C@@H](F)CN2C[C@H]1O | 4.6
O[C@@H]1[C@@H]2[C@H](O)C[C@H](F)CN2C[C@@H]1O | 0.5

Test system: Oryza sativa
Assay: Inhibition of rice Alpha-glucosidase using p-nitrophenyl glycoside as substrate assessed as p-nitrophenol release at 1000 uM by spectrometric analysis relative to control

Compound | inhibition [%]
O[C@H]1[C@H]2[C@@H](O)CCCN2C[C@H]1O | 0
O[C@H]1[C@H]2[C@@H](O)C[C@@H](F)CN2C[C@H]1O | 14
O[C@@H]1[C@@H]2[C@H](O)C[C@H](F)CN2C[C@@H]1O | 0

Test system: Aspergillus niger
Assay: Inhibition of Aspergillus niger amyloglucosidase using p-nitrophenyl glycoside as substrate assessed as release of p-nitrophenol at 1000 uM by spectrometric analysis relative to control

Compound | inhibition [%]
O[C@H]1[C@H]2[C@@H](O)CCCN2C[C@H]1O | 1.8
O[C@H]1[C@H]2[C@@H](O)C[C@@H](F)CN2C[C@H]1O | 1.4
O[C@@H]1[C@@H]2[C@H](O)C[C@H](F)CN2C[C@@H]1O | 10.9

Biological target: Alpha-galactosidase (Coffea arabica) (UniProt Q42656)
Sequence (Q42656 16-378 limits assumed): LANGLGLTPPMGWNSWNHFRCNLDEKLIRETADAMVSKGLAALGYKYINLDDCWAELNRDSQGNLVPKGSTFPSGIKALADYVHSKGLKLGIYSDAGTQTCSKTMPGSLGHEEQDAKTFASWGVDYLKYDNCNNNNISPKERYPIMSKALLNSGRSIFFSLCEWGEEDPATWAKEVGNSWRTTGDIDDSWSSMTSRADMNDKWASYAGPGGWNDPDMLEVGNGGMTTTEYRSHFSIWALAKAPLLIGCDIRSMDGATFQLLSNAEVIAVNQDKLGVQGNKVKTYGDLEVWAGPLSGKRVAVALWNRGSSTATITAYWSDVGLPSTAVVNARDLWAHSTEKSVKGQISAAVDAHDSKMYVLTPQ
Assay: Inhibition of coffee bean alpha-galactosidase using p-nitrophenyl glycoside as substrate assessed as release of p-nitrophenol at 1000 uM by spectrometric analysis relative to control

Compound | inhibition [%]
O[C@H]1[C@H]2[C@@H](O)CCCN2C[C@H]1O | 0
O[C@H]1[C@H]2[C@@H](O)C[C@@H](F)CN2C[C@H]1O | 0
O[C@@H]1[C@@H]2[C@H](O)C[C@H](F)CN2C[C@@H]1O | 0

Test system: Penicillium decumbens
Assay: Inhibition of Penicillium decumbens alpha-L-rhamnosidase using p-nitrophenyl glycoside as substrate assessed as release of p-nitrophenol at 1000 uM by spectrometric analysis relative to control

Compound | inhibition [%]
O[C@H]1[C@H]2[C@@H](O)CCCN2C[C@H]1O | 47.5
O[C@H]1[C@H]2[C@@H](O)C[C@@H](F)CN2C[C@H]1O | 118
O[C@@H]1[C@@H]2[C@H](O)C[C@H](F)CN2C[C@@H]1O | 52

Species on record: Bos taurus
Assay: Inhibition of bovine liver beta-galactosidase using p-nitrophenyl glycoside as substrate assessed as release of p-nitrophenol at 1000 uM by spectrometric analysis relative to control

Compound | inhibition [%]
O[C@H]1[C@H]2[C@@H](O)CCCN2C[C@H]1O | 0.8
O[C@H]1[C@H]2[C@@H](O)C[C@@H](F)CN2C[C@H]1O | 29.2
O[C@@H]1[C@@H]2[C@H](O)C[C@H](F)CN2C[C@@H]1O | 41.7

Species on record: Rattus norvegicus
Assay: Inhibition of rat intestinal Alpha-glucosidase using p-nitrophenyl glycoside as substrate assessed as p-nitrophenol release at 1000 uM by spectrometric analysis relative to control

Compound | inhibition [%]
O[C@H]1[C@H]2[C@@H](O)CCCN2C[C@H]1O | 0
O[C@H]1[C@H]2[C@@H](O)C[C@@H](F)CN2C[C@H]1O | 10.9

Test system: Prunus dulcis
Assay: Inhibition of almond Beta-glucosidase using p-nitrophenyl glycoside as substrate assessed as release of p-nitrophenol at 1000 uM by spectrometric analysis relative to control

Compound | inhibition [%]
O[C@H]1[C@H]2[C@@H](O)CCCN2C[C@H]1O | 3.2
O[C@H]1[C@H]2[C@@H](O)C[C@@H](F)CN2C[C@H]1O | 5.3
O[C@@H]1[C@@H]2[C@H](O)C[C@H](F)CN2C[C@@H]1O | 3.2

Species on record: Bos taurus
Assay: Inhibition of bovine liver beta-glucuronidase using p-nitrophenyl glycoside as substrate assessed as release of p-nitrophenol at 1000 uM by spectrometric analysis relative to control

Compound | inhibition [%]
O[C@H]1[C@H]2[C@@H](O)CCCN2C[C@H]1O | 5.7
O[C@H]1[C@H]2[C@@H](O)C[C@@H](F)CN2C[C@H]1O | 15.1

Biological target: Alpha glucosidase (Homo sapiens) (UniProt O43451+P10253+P14410+Q2M2H8)
Assay: Inhibition of human Alpha-glucosidase using p-nitrophenyl glycoside as substrate assessed as p-nitrophenol release at 1000 uM by spectrometric analysis relative to control
Type: protein assay

Compound | inhibition [%]
O[C@H]1[C@H]2[C@@H](O)CCCN2C[C@H]1O | 0
O[C@H]1[C@H]2[C@@H](O)C[C@@H](F)CN2C[C@H]1O | 5.3
O[C@@H]1[C@@H]2[C@H](O)C[C@H](F)CN2C[C@@H]1O | 37.6

Species on record: Homo sapiens
Assay: Inhibition of human lysosome beta-glucosidase using p-nitrophenyl glycoside as substrate assessed as release of p-nitrophenol at 1000 uM by spectrometric analysis relative to control

Compound | inhibition [%]
O[C@H]1[C@H]2[C@@H](O)CCCN2C[C@H]1O | 0
O[C@H]1[C@H]2[C@@H](O)C[C@@H](F)CN2C[C@H]1O | 17.3

Biological target: not listed separately
Assay: Inhibition of human liver Alpha-mannosidase

Compound | IC50 [µM]
O[C@H]1[C@H]2[C@@H](O)CCCN2C[C@H]1O | 51

Species on record: Bos taurus
Assay: Inhibition of bovine liver beta-glucosidase using p-nitrophenyl glycoside as substrate assessed as release of p-nitrophenol at 1000 uM by spectrometric analysis relative to control

Compound | inhibition [%]
O[C@H]1[C@H]2[C@@H](O)CCCN2C[C@H]1O | 4.5
O[C@H]1[C@H]2[C@@H](O)C[C@@H](F)CN2C[C@H]1O | 19.9
O[C@@H]1[C@@H]2[C@H](O)C[C@H](F)CN2C[C@@H]1O | 38.5

Test system: Escherichia coli
Assay: Inhibition of Escherichia coli beta-glucuronidase using p-nitrophenyl glycoside as substrate assessed as release of p-nitrophenol at 1000 uM by spectrometric analysis relative to control

Compound | inhibition [%]
O[C@H]1[C@H]2[C@@H](O)CCCN2C[C@H]1O | 0
O[C@H]1[C@H]2[C@@H](O)C[C@@H](F)CN2C[C@H]1O | 4.1
O[C@@H]1[C@@H]2[C@H](O)C[C@H](F)CN2C[C@@H]1O | 28.9

Biological target: Alpha-glucosidase (Saccharomyces cerevisiae S288c) (UniProt P53341+P38158+P07265)
Assay: Inhibition of yeast Alpha-glucosidase using p-nitrophenyl glycoside as substrate assessed as p-nitrophenol release at 1000 uM by spectrometric analysis relative to control
Type: protein assay

Compound | inhibition [%]
O[C@H]1[C@H]2[C@@H](O)CCCN2C[C@H]1O | 0
O[C@H]1[C@H]2[C@@H](O)C[C@@H](F)CN2C[C@H]1O | 6.2
O[C@@H]1[C@@H]2[C@H](O)C[C@H](F)CN2C[C@@H]1O | 18

Biological target: T1, Alpha-mannosidase (Canavalia ensiformis) (UniProt C0HJB3)
T1 sequence (whole entry): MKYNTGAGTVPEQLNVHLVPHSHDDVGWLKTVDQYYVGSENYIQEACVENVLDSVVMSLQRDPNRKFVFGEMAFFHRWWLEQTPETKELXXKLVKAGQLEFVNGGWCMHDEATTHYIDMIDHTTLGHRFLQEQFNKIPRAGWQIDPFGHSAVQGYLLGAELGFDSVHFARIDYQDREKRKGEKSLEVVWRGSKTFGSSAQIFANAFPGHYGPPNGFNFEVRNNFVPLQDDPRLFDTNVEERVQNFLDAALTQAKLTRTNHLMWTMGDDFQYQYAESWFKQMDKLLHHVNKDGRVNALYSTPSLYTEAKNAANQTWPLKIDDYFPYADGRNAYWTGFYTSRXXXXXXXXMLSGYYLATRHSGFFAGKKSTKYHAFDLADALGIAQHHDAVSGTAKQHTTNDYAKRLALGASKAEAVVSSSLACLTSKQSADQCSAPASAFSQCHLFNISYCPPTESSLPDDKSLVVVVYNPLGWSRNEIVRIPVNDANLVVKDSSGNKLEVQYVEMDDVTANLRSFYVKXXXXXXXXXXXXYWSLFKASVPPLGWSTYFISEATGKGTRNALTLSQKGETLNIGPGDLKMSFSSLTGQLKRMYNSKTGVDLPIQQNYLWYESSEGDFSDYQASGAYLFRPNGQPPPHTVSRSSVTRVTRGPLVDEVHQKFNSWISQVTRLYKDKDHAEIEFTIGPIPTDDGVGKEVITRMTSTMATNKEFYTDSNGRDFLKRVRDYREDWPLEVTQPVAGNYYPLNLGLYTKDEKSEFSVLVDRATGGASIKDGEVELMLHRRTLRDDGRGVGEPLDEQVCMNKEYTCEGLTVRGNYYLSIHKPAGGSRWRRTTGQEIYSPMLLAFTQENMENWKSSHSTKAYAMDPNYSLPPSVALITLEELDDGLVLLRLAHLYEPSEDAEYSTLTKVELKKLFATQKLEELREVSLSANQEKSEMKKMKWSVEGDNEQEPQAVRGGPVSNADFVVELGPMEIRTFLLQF
Assay: Inhibition of jack bean alpha-mannosidase using p-nitrophenyl glycoside as substrate assessed as release of p-nitrophenol at 1000 uM by spectrometric analysis relative to control

Compound | inhibition [%]
O[C@H]1[C@H]2[C@@H](O)CCCN2C[C@H]1O | 51
O[C@H]1[C@H]2[C@@H](O)C[C@@H](F)CN2C[C@H]1O | 14.4
O[C@@H]1[C@@H]2[C@H](O)C[C@H](F)CN2C[C@@H]1O | 0

Test system: Helix pomatia
Assay: Inhibition of snail beta-mannosidase using p-nitrophenyl glycoside as substrate assessed as release of p-nitrophenol at 1000 uM by spectrometric analysis relative to control

Compound | inhibition [%]
O[C@H]1[C@H]2[C@@H](O)CCCN2C[C@H]1O | 0
O[C@H]1[C@H]2[C@@H](O)C[C@@H](F)CN2C[C@H]1O | 3.3
O[C@@H]1[C@@H]2[C@H](O)C[C@H](F)CN2C[C@@H]1O | 0
